Values quoted from earlier work, collected in patent US20100092398A1, “ANTIMICROBIAL COMPOSITIONS AND APPLICATIONS THEREFORE” (priority 2004, published 2010).

Conditions: range given for terpinen-4-ol

SMILES: CC1=CCC(O)(C(C)C)CC1 (stereo not shown) [terpinen-4-ol]
- Relative density @ 20° C.: 0.930 to 0.936 g/mL
